The target in one experiment is T1, human CD40-CD40L (Homo sapiens, UniProt P29965).
T1 construct: purchased Enzo Life Sciences (San Diego, Calif.)
T1 sequence (P29965 116-261 limits assumed): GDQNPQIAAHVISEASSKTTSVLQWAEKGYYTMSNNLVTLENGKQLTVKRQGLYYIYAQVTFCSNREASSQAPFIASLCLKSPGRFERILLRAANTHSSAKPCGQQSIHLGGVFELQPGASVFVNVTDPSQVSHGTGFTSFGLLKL
In words: Cell-free ELISA-type CD40-CD40L binding inhibition assay. Here is the method:
Compounds according to the disclosure were assessed for their ability to inhibit the binding of tagged ligands to plate-bound receptors using ELISA-type 96-well plate-based cell-free assays as described in the literature (see Margolles-Clark et al, J Mol Med 87:1133-1143 (2009); Margolles-Clark et al., Chem Biol Drug Des 76:305-313 (2010); Song et al., Br J Pharmacol 171:4955-4969 (2014); and Ganesan et al., Biochem Pharmacol 81:810-818 (2011)).
Recombinant receptors (hCD40:Fc, TNF-R1:Fc) and tagged ligands (hCD154, MegaCD40L, and TNF-α), were obtained from Enzo Life Sciences (San Diego, Calif.). Microtiter plates (Nunc F Maxisorp; 96-well) were coated overnight at 4° C. with 100 μL/well of Fc chimeric receptors diluted in PBS 7.2. This was followed by blocking with 200 μL/well of blocking solution (PBS 7.2, 0.05% Tween-20, 1% BSA) for 1 hour at room temperature. […] Either anti-FLAG-HRP or streptavidin-HRP conjugate was used to detect the bound FLAG-tagged or biotinylated ligand, respectively. Plates were washed three times before the addition of 120 μL/well of HRP substrate TMB (3, 3′, 5, 5′-tetramethylbenzidine) and kept in the dark for 15-30 min. The reaction was stopped using 30 μL 1M H2SO4, and the absorbance was read at 450 nm. Stock solutions of compounds at 10 mM in DMSO were used.
(§1) Typical concentrations used were as follows—receptors: 0.3 μg/mL for CD40, TNF-R1, and RANK; 0.6 μg/mL for BAFF-R, OX40, and 4-1BB; and 2 μg/mL for EGF-R-ligands: 0.02 μg/mL for CD40L, TNFα, and RANKL; 0.2 μg/ml for BAFF, OX40L, 4-1BBL; and 0.3 μg/mL for EGF. Assays were done in duplicate or triplicate per plate and repeated at least three times; the averaged data were normalized and used for data fitting and analysis. Binding data were fitted using the standard log inhibitor versus response model in GraphPad Prism to determine the corresponding IC50 values.
For orientation: ELISA stands for enzyme-linked immunosorbent assay.

A further experiment deals with T2, OX40-OX40L (Homo sapiens, UniProt P23510+P43489).
T2 sequence (P43489 29-214 limits assumed): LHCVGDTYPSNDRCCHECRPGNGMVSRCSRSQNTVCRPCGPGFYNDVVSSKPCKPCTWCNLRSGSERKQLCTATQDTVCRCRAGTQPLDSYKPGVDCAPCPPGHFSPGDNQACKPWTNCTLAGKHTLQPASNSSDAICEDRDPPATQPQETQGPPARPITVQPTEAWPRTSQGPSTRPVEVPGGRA
T2 sequence (P23510 51-183 limits assumed): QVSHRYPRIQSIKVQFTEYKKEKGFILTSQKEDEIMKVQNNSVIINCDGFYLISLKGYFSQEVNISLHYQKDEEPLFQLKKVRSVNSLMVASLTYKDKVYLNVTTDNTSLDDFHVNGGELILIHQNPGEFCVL
Kind of experiment: Cell-free ELISA-type OX40 binding inhibition assay. As to conditions: Table 2. Here is the method:
as §1

Experiment [1] has as its system TNFSF costimulatory interactions. As to conditions: literature; cited from earlier work.
Experiment [2] concerns CD40L-induced NF-κB activation in CD40 sensor cells (HEK Blue). In words: Inhibition of CD40L-induced NF-κB activation in CD40 sensor cells (HEK-Blue). The format is cell-based, human. As to conditions: CD40L 20 ng/mL, 18 h. The source says:
Activities of the compounds of the disclosure were confirmed in cell-based assays. As a first example, TNF-R1 and CD40 expressing sensor cells (HEK-Blue; InvivoGen, San Diego, Calif.) were used as described in the literature (see Song et al., Br J Pharmacol 171:4955-4969 (2014) and Cechin et al., Steroids 85:36-43 (2014)).
Cells were maintained in DMEM at 80% confluence for each experiment. Cells were trypsinized and re-suspended in the same medium with 1% FBS and seeded on 96-well microtiter plates at a density of 1×10^5 cells/well in the absence and presence of various concentrations of compounds diluted in the same media. For ligand mediated stimulation, final concentrations of recombinant human TNFα (2 ng/mL) and CD40L (20 ng/mL) were maintained in the wells for this purpose. After 18-hour incubation at 37° C., 20 μL supernatant of each well were taken and added to another 96-well microtiter plate containing 180 μL/well of QUANTI-Blue (InvivoGen, CA). The level of SEAP was determined after 30-minute incubation at 37° C. by reading at 625 nm using a spectrophotometer. […] Data are average±SD (normalized to CD40L-activated cells alone) for n=4 independent experiments with duplicates for each condition.

The test system of experiment [3] is CD40L-induced proliferation of human CD19+ B cells. Kind of experiment: Inhibition of CD40L-induced human CD19+ B-cell proliferation (BrdU). The class given is cell-based. The method, then:
Because CD40 stimulation is an important signal for B cell proliferation, soluble CD40L can concentration-dependently induce the proliferation of human B cells.
Inhibition of cell proliferation was determined in freshly isolated human CD19^+ B cells using the colorimetric cell proliferation ELISA BrdU kit from Roche Applied Science (Indianapolis, Ind.). B cells were isolated from the PBMC as follows. Briefly, cells were washed three times with medium (RPMI 1640) and incubated for 20 min at 4° C. with 20 μL/10^7 cells of anti-CD19 Microbeads (Miltenyi Biotech, Bergisch Gladbach, Germany), according to the MiniMacs protocol (Miltenyi Biotech). Cells were then purified using magnetic columns. […] Cells were cultured in 96 wells plates (100 μL/well) at a cell density of 2×10^5 cells/mL in IMDM medium supplemented with 5% FBS, 100 U/mL penicillin, streptomycin 100 μg/mL, insulin-transferrin-selenium-G (all materials from Invitrogen, San Diego, Calif.) and 10 […] (R&D Systems). […] After 48 h, BrdU labeling solution was added as recommended, and cells were cultivated for another 48 h. Detection of incorporated BrdU was carried out following the instructions of the ELISA BrdU kit.
Data are average±SD for n=3 independent experiments with triplicates for each condition using a standard BrdU assay (Roche).

Where two headings read alike, the source gives them in different places.

The text below walks through data of US10562848B2, “Inhibitors of TNF superfamily costimulatory interactions and methods for uses of the same” (UNIVERSITY OF MIAMI, priority 2015, dated 2020).

In the case of `Nc1ccc(C(=O)Nc2ccc(-c3ccc(C(=O)Nc4cccc5cccc(S(=O)(=O)O)c45)cc3)cc2)cc1` [Compound 21042], the IC50 on human CD40-CD40L (IC50 CD40, Table 2) was found to be 301 µM; on OX40-OX40L it was 12.8 µM. On human CD40-CD40L (cell-free binding), the “inhibition of human CD40-CD40L binding (in words)” value is recorded as “concentration-dependent inhibition”.
The corresponding values for `O=C(Nc1ccc(-c2ccc(C(=O)Nc3cccc4cccc(S(=O)(=O)O)c34)cc2)cc1)c1ccc2[nH]nnc2c1` [Compound 21080] are 1 µM, 26.3 µM and “concentration-dependent inhibition”.
With `COC(=O)c1cccc2c(NC(=O)c3ccc(-c4ccc(NC(=O)c5ccc([N+](=O)[O-])cc5)cc4)cc3)cccc12` [Compound 24541], the concentration for half-maximal inhibition (IC50) was determined as 916 µM on human CD40-CD40L (Table 2, read-out: IC50 CD40) and 6560 µM at OX40-OX40L.
With `O=C(Nc1ccc(-c2ccc(C(=O)Nc3ccc(S(=O)(=O)O)c4ccccc34)cc2)cc1)c1ccc([N+](=O)[O-])cc1` [Compound 25041], the IC50 on human CD40-CD40L (IC50 CD40, Table 2) is 2.3 µM; on OX40-OX40L it was 7 µM. Moreover, the “inhibition of human CD40-CD40L binding (in words)” value on human CD40-CD40L (cell-free binding) is listed as “concentration-dependent inhibition”.
As for `O=C(Nc1ccc2c(O)c(N=Nc3ccc(N=Nc4ccc(S(=O)(=O)[O-])cc4)cc3S(=O)(=O)[O-])c(S(=O)(=O)[O-])cc2c1)Nc1ccc2c(O)c(N=Nc3ccc(N=Nc4ccc(S(=O)(=O)[O-])cc4)cc3S(=O)(=O)[O-])c(S(=O)(=O)[O-])cc2c1.[Na+].[Na+].[Na+].[Na+].[Na+].[Na+]` [DR80, direct red 80, reference compound], the IC50 on human CD40-CD40L (cell-free binding, n=3 independent experiments, read-out: IC50, inhibition of the CD40-CD40L interaction) was 2.26 µM; in experiment [2], 42.7 µM. The “activity of other small molecule inhibitors (in words)” value in experiment [1] is “active in the low μM range”.
As to `O=C([O-])C1=NN(c2ccc(S(=O)(=O)[O-])cc2)C(=O)C1N=Nc1ccc(S(=O)(=O)[O-])cc1.[Na+].[Na+].[Na+]` (stereo not shown) [Tartrazine, reference compound], the “inhibition of human CD40-CD40L binding (in words)” value at human CD40-CD40L (cell-free binding) was “inactive”. Moreover, the “inhibition of CD40L-induced human CD19+ B-cell proliferation (in words)” value in experiment [3] is “no proliferation inhibiting activity”.
As for `Nc1ccc2cc(S(=O)(=O)[O-])cc(O)c2c1N=Nc1ccc(-c2ccc(N=Nc3c(N)ccc4cc(S(=O)(=O)[O-])cc(O)c34)cc2)cc1.[Na+].[Na+]` [chlorazol violet N], the “activity of other small molecule inhibitors (in words)” value in experiment [1] is listed as “active in the low μM range”.
`Cc1cc(S(=O)(=O)[O-])ccc1N=Nc1ccc(N=Nc2c(O)ccc3cccc(S(=O)(=O)[O-])c23)c(C)c1.[Na+].[Na+]` [crocein scarlet 7B]: the “activity of other small molecule inhibitors (in words)” value in experiment [1] is “active in the low μM range”.
Take mordant brown: the “activity of other small molecule inhibitors (in words)” value in experiment [1] is recorded as “active in the low μM range”.

As usually defined, the IC50 is the midpoint of a concentration-inhibition curve.
